Each structure is given as a SMILES string. A value given as a limit tells only on which side of the number the result lay.

In assay [1] the test system is NCI-H358 (H358, KRAS G12C) cancer cell line. The experiment in a line: 3D proliferation assay, NCI-H358 (CellTiter-Glo). The format is cell-based. Conditions: 96-well spheroid plate, 4 days. The protocol: (§1) 3D proliferation assay: NCI-H358 (H358, KRAS G12C) and LS513 (KRAS G12D) cancer cell lines were obtained from ATCC (American Type Culture Collection, VA). Cells were plated in 96-well spheroid plate (CORNING INC, NY)) in RPMI-1640 with 10% FBS. Compounds (11-point dilutions) and DMSO were added to the wells and incubated with cells for 4 days at 37° C. Cell viability was then determined by CellTiter-Glo (Promega, WI). IC50 values of compounds were determined as the concentration of 50% inhibition of cell viability compared to DMSO treated cells (A: IC50<0.1 μM; B: IC50 between 0.1 μM and 1 μM; C: IC50 between 1 μM and 10 μM; D: >10 μM; ND: not determined).
Background: ATP-based viability assays read luminescence as a measure of living cells.

Assay [2] relates to LS513 (KRAS G12D) cancer cell line. Nature of the assay: 3D proliferation assay, LS513 (CellTiter-Glo). The format is cell-based. As to conditions: 96-well spheroid plate, 4 days. The protocol:
as §1

What is called IC50 is the concentration needed to halve the response being measured. Read a low IC50 as higher potency. Take `C=C(F)C(=O)N1C[C@H](C)N(c2nc(=O)n3c4nc(c(F)cc24)-c2c(F)cccc2NCCCc2ccnc(C(C)C)c2-3)C[C@H]1C` (single isomer, unassigned) [Example 6A]: in assay [1], the concentration for half-maximal inhibition (IC50) was above 10000 nM.
For the molecule `C=C(F)C(=O)N1C[C@H](C)N(c2nc(=O)n3c4nc(c(F)cc24)-c2c(F)cccc2NCCCc2ccnc(C(C)C)c2-3)C[C@H]1C` (single isomer, unassigned) [Example 6B], the half-inhibitory concentration (IC50) in assay [1] was 100 to 1000 nM; in assay [2] (Homo sapiens, LS-513, 96 h), above 10 µM.
Take `C=CC(=O)N1C[C@H](C)N(c2nc(=O)n3c4nc(c(F)cc24)-c2c(F)cccc2NCCCNc2cccc(C(C)C)c2-3)C[C@H]1C` (single isomer, unassigned) [Example 23A]: the 50% inhibitory concentration (IC50) in assay [1] (Homo sapiens, NCI-H358, 96 h) was below 100 nM; in assay [2], above 10 µM.
For `C=CC(=O)N1C[C@H](C)N(c2nc(=O)n3c4nc(c(F)cc24)-c2c(F)cccc2NCCCNc2cccc(C(C)C)c2-3)C[C@H]1C` (single isomer, unassigned) [Example 23B], the IC50 lay within 100 to 1000 nM in assay [1] and 1 to 10 µM in assay [2].
As for `C=CC(=O)N1CCN(c2nc(=O)n3c4nc(c(F)cc24)-c2c(F)cccc2NCCCc2ccnc(C(C)C)c2-3)[C@@H](C)C1` [Example 2, (S)-2^4-(4-acryloyl-2-methylpiperazin-1-yl)-2^6,3^6-difluoro-1^2-isopropyl-2^1,2^2-dihydro-4-aza-2(1,7)-pyrido[2,3-d]pyrimidina-1(3,4)-pyridina-3(1,2)-benzenacycloheptaphan-2^2-one], the IC50 in assay [1] (Homo sapiens, NCI-H358, 96 h) was below 100 nM; in assay [2] (Homo sapiens, LS-513, 96 h) it was above 10 µM.
`C=CC(=O)N1CCN(c2nc(=O)n3c4nc(c(F)cc24)-c2c(F)cccc2NC(=O)CCc2ccnc(C(C)C)c2-3)C[C@@H]1CC#N` [Example 3, (S)-2-(1-acryloyl-4-(2^6,3^6-difluoro-1^2-isopropyl-2^2,5-dioxo-2^1,2^2-dihydro-4-aza-2(1,7)-pyrido[2,3-d]pyrimidina-1(3,4)-pyridina-3(1,2)-benzenacycloheptaphane-2^4-yl)piperazin-2-yl)acetonitrile] displayed a half-maximal inhibitory concentration (IC50) in assay [1] (Homo sapiens, NCI-H358, 96 h) of 1000 to 10000 nM.
`C=CC(=O)N1CCN(c2nc(=O)n3c4nc(c(F)cc24)-c2c(F)cccc2NC(=O)NCCc2ccnc(C(C)C)c2-3)[C@@H](C)C1` [Example 5, (S)-2^4-(4-acryloyl-2-methylpiperazin-1-yl)-2^6,3^6-difluoro-1^2-isopropyl-2^1,2^2-dihydro-4,6-diaza-2(1,7)-pyrido[2,3-d]pyrimidina-1(3,4)-pyridina-3(1,2)-benzenacyclooctaphane-2^2,5-dione] came in with an IC50 in assay [1] (Homo sapiens, NCI-H358, 96 h) of 100 to 1000 nM.
`C=C(F)C(=O)N1CCN(c2nc(=O)n3c4nc(c(F)cc24)-c2c(F)cccc2NCCCc2ccnc(C(C)C)c2-3)[C@@H](C)C1` [Example 11, (S)-2^6,3^6-difluoro-2^4-(4-(2-fluoroacryloyl)-2-methylpiperazin-1-yl)-1^2-isopropyl-2^1,2^2-dihydro-4-aza-2(1,7)-pyrido[2,3-d]pyrimidina-1(3,4)-pyridina-3(1,2)-benzenacycloheptaphan-2^2-one]: the IC50 was 100 to 1000 nM in assay [1] (Homo sapiens, NCI-H358, 96 h) and above 10 µM in assay [2] (Homo sapiens, LS-513, 96 h).
The matching figures for `C=CC(=O)N1CCN(c2nc(=O)n3c4nc(c(F)cc24)-c2c(F)cccc2N(C(C)=O)CCCc2ccnc(C(C)C)c2-3)[C@@H](C)C1` [Example 12, (S)-4-acetyl-2^4-(4-acryloyl-2-methylpiperazin-1-yl)-2^6,3^6-difluoro-1^2-isopropyl-2^1,2^2-dihydro-4-aza-2(1,7)-pyrido[2,3-d]pyrimidina-1(3,4)-pyridina-3(1,2)-benzenacycloheptaphan-2^2-one]: 100 to 1000 nM and above 10 µM.
As for `C=CC(=O)N1CCN(c2nc(=O)n3c4nc(c(F)cc24)-c2c(F)cccc2N(C(=O)N(C)C)CCCc2ccnc(C(C)C)c2-3)[C@@H](C)C1` [Example 13, (S)-2^4-(4-acryloyl-2-methylpiperazin-1-yl)-2^6,3^6-difluoro-1^2-isopropyl-N,N-dimethyl-2^2-oxo-2^1,2^2-dihydro-4-aza-2(1,7)-pyrido[2,3-d]pyrimidina-1(3,4)-pyridina-3(1,2)-benzenacycloheptaphane-4-carboxamide], the IC50 in assay [1] (Homo sapiens, NCI-H358, 96 h) lay within 100 to 1000 nM.
With `C=CC(=O)N1CCN(c2nc(=O)n3c4nc(c(F)cc24)-c2c(F)cccc2N(C(=O)c2cccnc2)CCCc2ccnc(C(C)C)c2-3)[C@@H](C)C1` [Example 14, (S)-2^4-(4-acryloyl-2-methylpiperazin-1-yl)-2^6,3^6-difluoro-1^2-isopropyl-4-nicotinoyl-2^1,2^2-dihydro-4-aza-2(1,7)-pyrido[2,3-d]pyrimidina-1(3,4)-pyridina-3(1,2)-benzenacycloheptaphan-2^2-one], in assay [1] (Homo sapiens, NCI-H358, 96 h), the half-maximal inhibitory concentration (IC50) was 1000 to 10000 nM.
`C=CC(=O)N1CCN(c2nc(=O)n3c4nc(c(F)cc24)-c2c(F)cccc2N(C)C(=O)NCCc2ccnc(C(C)C)c2-3)[C@@H](C)C1` [Example 16, (S)-2^4-(4-acryloyl-2-methylpiperazin-1-yl)-2^6,3^6-difluoro-1^2-isopropyl-4-methyl-2^1,2^2-dihydro-4,6-diaza-2(1,7)-pyrido[2,3-d]pyrimidina-1(3,4)-pyridina-3(1,2)-benzenacyclooctaphane-2^2,5-dione] registered an IC50 in assay [1] (Homo sapiens, NCI-H358, 96 h) of 1000 to 10000 nM.
As for `C=CC(=O)N1CCN(c2nc(=O)n3c4nc(c(F)cc24)-c2c(F)cccc2NC(=O)CCc2cccc(C(C)C)c2-3)[C@@H](C)C1` [Example 18, (S)-2^4-(4-acryloyl-2-methylpiperazin-1-yl)-2^6,3^6-difluoro-1^6-isopropyl-2^1,2^2-dihydro-4-aza-2(1,7)-pyrido[2,3-d]pyrimidina-1,3(1,2)-dibenzenacycloheptaphane-2^2,5-dione], the IC50 in assay [1] (Homo sapiens, NCI-H358, 96 h) is 100 to 1000 nM; in assay [2] (Homo sapiens, LS-513, 96 h), above 10 µM.
The matching figures for `C=CC(=O)N1CCN(c2nc(=O)n3c4nc(c(F)cc24)-c2c(F)cccc2NC(=O)CCNc2cccc(C(C)C)c2-3)[C@@H](C)C1` [Example 21, (S)-2^4-(4-acryloyl-2-methylpiperazin-1-yl)-2^6,3^6-difluoro-1^6-isopropyl-2^1,2^2-dihydro-4,8-diaza-2(1,7)-pyrido[2,3-d]pyrimidina-1,3(1,2)-dibenzenacyclooctaphane-2^2,5-dione]: below 100 nM and above 10 µM.
On the same counts, the results for `C=CC(=O)N1C[C@H](C)N(c2nc(=O)n3c4nc(c(F)cc24)-c2c(F)cccc2NC(=O)CCNc2cccc(C(C)C)c2-3)C[C@H]1C` [Example 24A, 2^4-((2S,5R)-4-acryloyl-2,5-dimethylpiperazin-1-yl)-2^6,3^6-difluoro-1^6-isopropyl-2^1,2^2-dihydro-4,8-diaza-2(1,7)-pyrido[2,3-d]pyrimidina-1,3(1,2)-dibenzenacyclooctaphane-2^2,5-dione] are below 100 nM and above 10 µM.
With `C=CC(=O)N1CCN(c2nc(=O)n3c4nc(c(F)cc24)-c2c(F)cccc2NC(=O)CNc2cccc(C(C)C)c2-3)[C@@H](C)C1` [Example 25, (S)-2^4-(4-acryloyl-2-methylpiperazin-1-yl)-2^6,3^6-difluoro-1^6-isopropyl-2^1,2^2-dihydro-4,7-diaza-2(1,7)-pyrido[2,3-d]pyrimidina-1,3(1,2)-dibenzenacycloheptaphane-2^2,5-dione], the 50% inhibitory concentration (IC50) is below 100 nM in assay [1] (Homo sapiens, NCI-H358, 96 h) and above 10 µM in assay [2] (Homo sapiens, LS-513, 96 h).
On to `C=CC(=O)N1C[C@H](C)N(c2nc(=O)n3c4nc(c(F)cc24)-c2c(F)cccc2NC(=O)CNc2cccc(C(C)C)c2-3)C[C@H]1C` [Example 26, 2^4-((2S,5R)-4-acryloyl-2,5-dimethylpiperazin-1-yl)-2^6,3^6-difluoro-1^6-isopropyl-2^1,2^2-dihydro-4,7-diaza-2(1,7)-pyrido[2,3-d]pyrimidina-1,3(1,2)-dibenzenacycloheptaphane-2^2,5-dione], for which the IC50 in assay [1] (Homo sapiens, NCI-H358, 96 h) is below 100 nM; in assay [2] (Homo sapiens, LS-513, 96 h), above 10 µM.
As to `C=CC(=O)N1CCN(c2nc(=O)n3c4nc(c(F)cc24)-c2c(F)cccc2NC(=O)CCN(C)c2cccc(C(C)C)c2-3)C(C)C1` [Example 29, (S)-2^4-(4-acryloyl-2-methylpiperazin-1-yl)-2^6,3^6-difluoro-1^6-isopropyl-8-methyl-2^1,2^2-dihydro-4,8-diaza-2(1,7)-pyrido[2,3-d]pyrimidina-1,3(1,2)-dibenzenacyclooctaphane-2^2,5-dione], the IC50 in assay [1] was below 100 nM; in assay [2], above 10 µM.
`C=CC(=O)N1C[C@H](C)N(c2nc(=O)n3c4nc(c(F)cc24)-c2c(F)cccc2NC(=O)CCN(C)c2cccc(C(C)C)c2-3)C[C@H]1C` [Example 30, 2^4-((2S,5R)-4-acryloyl-2,5-dimethylpiperazin-1-yl)-2^6,3^6-difluoro-1^6-isopropyl-8-methyl-2^1,2^2-dihydro-4,8-diaza-2(1,7)-pyrido[2,3-d]pyrimidina-1,3(1,2)-dibenzenacyclooctaphane-2^2,5-dione]: the 50% inhibitory concentration (IC50) is below 100 nM in assay [1] (Homo sapiens, NCI-H358, 96 h) and above 10 µM in assay [2] (Homo sapiens, LS-513, 96 h).

The values are drawn from US20220153741A1, “HETEROCYCLIC COMPOUNDS AS INHIBITORS OF KRAS G12C” (Guangdong Newopp Biopharmaceuticals Co., Ltd., priority 2019, published 2022).
